# Measured values as given in US11634447B2 (priority 2012, dated 2023).
# Where “and” joins values, the source holds several entries; their conditions need not be identical. Equal values may be shown once.
# Key:
# [1] = target: T1, FimH-CRD (Escherichia coli, UniProt P08191); test: Competitive binding assay by fluorescence polarization, assay 1 (compounds prepared by manual dilution); set-up: species or system E. coli
# T1 construct: The first 177 amino acids of the FimH protein are expressed as a fusion protein; thrombin tag (printed as 'fusion protein with thrombin') (cleaved yes); made in house; host or cells: bacteria (pET21b plasmid)
# T1 sequence (P08191 22-177): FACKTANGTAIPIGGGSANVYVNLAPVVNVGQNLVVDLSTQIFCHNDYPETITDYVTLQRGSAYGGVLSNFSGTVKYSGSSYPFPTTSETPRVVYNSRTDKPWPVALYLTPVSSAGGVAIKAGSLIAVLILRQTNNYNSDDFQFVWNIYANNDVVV
# In short: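 FimH-CRD (residues 1-177, tag removed) at 60 nM competed against 5 nM Alexa 647 mannoside probe in 50 mM Tris-Cl pH 7.0, 100 mM NaCl, 1 mM EDTA, 5 mM β-mercaptoethanol, 0.05% BSA, 2.5% DMSO; 5 h, room temperature, dark. Compounds 0.4 nM-75 μM final, 12-point 3-fold, duplicate; Kd from fluorescence polarization displacement curves. Assay 1: manual dilution; assay 2: robotic dilution, plates frozen/thawed.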
# [2] = target: T1, FimH-CRD; test: Competitive binding assay by fluorescence polarization, assay 2 (compounds prepared by a robotics system, plates frozen and thawed); set-up: species or system E. coli; settings: Assay 2 Kd, 5 nM Alexa 647 mannoside probe, 60 nM FimH-CRD, replicate values in one cell
# Description: The first 177 amino acids of the FimH protein are expressed as a fusion protein with thrombin in a pET21b plasmid in bacteria. This FimH protein sequence contains the carbohydrate recognition domain (CRD) and shall be termed FimH-CRD. Following bacterial expression of the protein, the FimH-CRD protein is purified to homogeneity and the thrombin tag removed by protease cleavage. A competitive binding assay by fluorescence polarization is performed using 5 nM of the Alexa 647 mannoside probe and 60 nM of the FimH-CRD. The samples are assayed in a low volume 384 well microtiter plate in a final volume of 20 μl. The final assay buffer conditions are the following, 50 mM Tris-Cl, ph 7.0, 100 mM NaCl, 1 mM EDTA, 5 mM β-mercaptoethanol, 0.05% BSA and 2.5% DMSO. Two assays are performed for FimH, termed assay 1 or assay 2. The assay conditions are the same for both assays except the following: assay 1 has compounds prepared by manual dilution in a serial dilution factor with 12-point dose response while assay 2 has compounds prepared by a robotics system also through a serial dilution factor (12 point dose response) and initially prepared in duplicate in 384 well-Corning polypropylene round bottom plates. The assay 2 plates have compound which is then frozen and must be thawed prior to use. Initially the Alexa 647 probe and the FimH-CRD are added to the assay buffer and then 0.5 μl of test compound (assay 1 or 2) between 0.4 nM to 75 μM final concentration are added (12 point titration with 3-fold serial dilution). Control wells for the Alexa 647 probe are prepared with the same conditions except for the addition of the FimH-CRD protein. Plates are then incubated for 5 hrs at room temperature in the dark and under humid conditions to prevent drying. Plates are read using the SpectraMax Paradigm multi-mode plate reader and the appropriate fluorescent polarization detection cartridge (Alexa-647).
# Alexa 647 mannoside probe is prepared using the similar procedure reported for FAM mannoside (Han, Z. et. al., 2010, J. Med. Chem., 53, 4779) and is described in the scheme below.
# To a blue colored stirred solution of (2S,3S,4S,5S,6R)-2-(4-aminobutoxy)-6-(hydroxymethyl)tetrahydropyran-3,4,5-triol (2.21 mg, 0.009 mmol) and the (2E)-2-[(2E,4E)-5-[3,3-dimethyl-5-sulfonato-1-(3-sulfonatopropyl)indol-1-ium-2-yl]penta-2,4-dienylidene]-3-[6-(2,5-dioxopyrrolidin-1-yl)oxy-6-oxo-hexyl]-3-methyl-1-(3-sulfonatopropyl)indoline-5-sulfonate (Potassium Ion (3)) (4.9 mg, 0.0044 mmol) in DMF (44 μL) is added Et3N (5.4 mg, 7.0 μL, 0.053 mmol) at RT. The solution is stirred at room temperature over night, concentrated, dissolved in water and purified on 12 g C-18 silica gel cartridge on Isolera system using acetonitrile in water (0 to 40%, 10 CV) and followed by lyophilization to afford Alexa 647 mannoside probe (3.3 mg, 34%) as deep blue solid.
# The Kd values of the compounds are determined from dose response curves using twelve concentrations per compound in duplicate. Curves are fitted to data points using Fluorescence Polarization competitive displacement analysis, and Kds are interpolated from the resulting curves using GraphPad Prism software, version […] (GraphPad software Inc., San Diego, Calif., USA).
# [3] = test system: bacterial strain LF82 binding to the glycoprotein BSA-(Mannose)3; test: Bacterial Binding Assay (BBA); type: cell-based, Escherichia coli; settings: read-out: Bacterial Binding Assay IC50, LF82/Luciferase strain binding to BSA-(Man)3 coated plates, luminescence
# In short: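 Inhibition of LF82/luciferase E. coli adhesion is read as luminescence after washing off unbound cells. Compound and bacteria (10^7 per well) are co-incubated 40-75 min at room temperature on wells coated with 0.5-2 μg/mL BSA-(Man)3, with BSA-only wells as background; IC50 values derived.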
# [4] = Assay 1 Kd, 5 nM Alexa 647 mannoside probe, 60 nM FimH-CRD, replicate values in one cell
# [5] = read-out: Assay 1 Kd, 5 nM Alexa 647 mannoside probe, 60 nM FimH-CRD, replicate values in one cell
Structure (SMILES),"Kd [1, 4]",Kd [2],IC50 [3],"Kd [1, 5]"
"OC[C@H]1O[C@H](CCc2cccc([C@H]3O[C@H](CO)[C@@H](O)[C@H](O)[C@@H]3O)c2)[C@@H](O)[C@@H](O)[C@@H]1O [Compound 37, ((2R,3S,4R,5S,6R)-2-(Hydroxymethyl)-6-[2-[3-[(2R,3S,4R,5S,6R)-3,4,5-trihydroxy-6-(hydroxymethyl)tetrahydropyran-2-yl]phenyl]ethyl]tetrahydropyran-3,4,5-triol)]",7 nM,18 nM and < 5 nM and 12 nM,1650 nM,
"OC[C@H]1O[C@H](CCc2ccc(CC[C@H]3O[C@H](CO)[C@@H](O)[C@H](O)[C@@H]3O)cc2)[C@@H](O)[C@@H](O)[C@@H]1O [Compound 22, ((2R,3S,4R,5S,6R)-2-(Hydroxymethyl)-6-[2-[4-[2-[(2R,3S,4R,5S,6R)-3,4,5-trihydroxy-6-(hydroxymethyl)tetrahydropyran-2-yl]ethyl]phenyl]ethyl]tetrahydropyran-3,4,5-triol)]",< 5 nM and 12 nM,14 nM and < 5 nM and 11 nM,1600 nM,
"OC[C@H]1O[C@H](c2ccc(-c3cccc([C@H]4O[C@H](CO)[C@@H](O)[C@H](O)[C@@H]4O)c3)cc2)[C@@H](O)[C@@H](O)[C@@H]1O [Compound 5, (2R,2,3S,3,4R,4,5S,5,6R,6)-6,6([1,1Biphenyl]-3,4diyl)bis(2-(hydroxymethyl)tetrahydro-2H-pyran-3,4,5-triol)]",< 5 nM,49 nM and < 5 nM (2×),580 nM,< 5 nM
O=C(Nc1ccc(Cc2ccc(NC(=O)c3cccc([C@H]4O[C@H](CO)[C@@H](O)[C@H](O)[C@@H]4O)c3)cc2)cc1)c1cccc([C@H]2O[C@H](CO)[C@@H](O)[C@H](O)[C@@H]2O)c1 [Compound 16],< 5 nM and 6 nM,26 nM and < 5 nM and 9 nM,1510 nM,
"OC[C@H]1O[C@H](C/C=C/c2cccc(/C=C/C[C@H]3O[C@H](CO)[C@@H](O)[C@H](O)[C@@H]3O)c2)[C@@H](O)[C@@H](O)[C@@H]1O [Compound 25, ((2R,3S,4R,5S,6R)-2-(Hydroxymethyl)-6-[(E)-3-[3-[(E)-3-[(2R,3S,4R,5S,6R)-3,4,5-trihydroxy-6-(hydroxymethyl)tetrahydropyran-2-yl]prop-1-enyl]phenyl]allyl]tetrahydropyran-3,4,5-triol)]",< 5 nM,21 nM and 10 nM and 12 nM,1400 nM,< 5 nM
"OC[C@H]1O[C@H](c2ccc([C@H]3O[C@H](CO)[C@@H](O)[C@H](O)[C@@H]3O)cc2)[C@@H](O)[C@@H](O)[C@@H]1O [Compound 1, (2R,3S,4R,5S,6R)-2-(Hydroxymethyl)-6-[4-[(2R,3S,4R,5S,6R)-3,4,5-trihydroxy-6 (hydroxymethyl)tetrahydropyran-2-yl]phenyl]tetrahydropyran-3,4,5-triol]",< 5 nM (2×) and 8 nM,13 nM and 8 nM,5270 nM,
"OC[C@H]1O[C@H](CCCc2ccc(CCC[C@H]3O[C@H](CO)[C@@H](O)[C@H](O)[C@@H]3O)cc2)[C@@H](O)[C@@H](O)[C@@H]1O [Compound 38, (2R,3S,4R,5S,6R)-2-(hydroxymethyl)-6-[3-[4-[3-[(2R,3S,4R,5S,6R)-3,4,5-trihydroxy-6-(hydroxymethyl)tetrahydropyran-2-yl]propyl]phenyl]propyl]tetrahydropyran-3,4,5-triol]",< 5 nM,< 5 nM (2×) and 21 nM,410 nM,< 5 nM
"O=C(NCCCCCCCCNC(=O)c1cccc([C@H]2O[C@H](CO)[C@@H](O)[C@H](O)[C@@H]2O)c1)c1cccc([C@H]2O[C@H](CO)[C@@H](O)[C@H](O)[C@@H]2O)c1 [Compound 14, (R,R,S,R,S)-N,N′-(Octane-1,8-diyl)bis(3-((2R,3S,4R,5S,6R)-3,4,5-trihydroxy-6-(hydroxymethyl)tetrahydro-2H-pyran-2-yl)benzamide)]",11 nM and 13 nM,43 nM and 6 nM and 14 nM,4100 nM,
"OC[C@H]1O[C@H](C/C=C/c2cccc(C#C[C@H]3O[C@H](CO)[C@@H](O)[C@H](O)[C@@H]3O)c2)[C@@H](O)[C@@H](O)[C@@H]1O [Compound 40, ((2R,3S,4R,5S,6R)-2-(Hydroxymethyl)-6-[(E)-3-[3-[2-[(2R,3S,4R,5S,6R)-3,4,5-trihydroxy-6-(hydroxymethyl)tetrahydropyran-2-yl]ethynyl]phenyl]allyl]tetrahydropyran-3,4,5-triol)]",< 5 nM and 18 nM,8 nM and 10 nM,43 nM,
"O=C(NCCCCCNC(=O)c1cccc([C@H]2O[C@H](CO)[C@@H](O)[C@H](O)[C@@H]2O)c1)c1cccc([C@H]2O[C@H](CO)[C@@H](O)[C@H](O)[C@@H]2O)c1 [Compound 11, (R,R,S,R,S)-N,N′-(Pentane-1,5-diyl)bis(3-((2R,3S,4R,5S,6R)-3,4,5-trihydroxy-6-(hydroxymethyl)tetrahydro-2H-pyran-2-yl)benzamide)]",< 5 nM and 11 nM,16 nM,,
"OC[C@H]1O[C@H](c2ccc(-c3ccc([C@H]4O[C@H](CO)[C@@H](O)[C@H](O)[C@@H]4O)cc3)cc2)[C@@H](O)[C@@H](O)[C@@H]1O [Compound 6, (2R,2 ,3S,3,4R,4,5S,5,6R,6)-6,6([1,1Biphenyl]-4,4diyl)bis(2-(hydroxymethyl)tetrahydro-2H-pyran-3,4,5-triol)]",< 5 nM,< 5 nM and 23 nM,95 nM,< 5 nM
OC[C@H]1O[C@H](CCCC[C@H]2O[C@H](CO)[C@@H](O)[C@H](O)[C@@H]2O)[C@@H](O)[C@@H](O)[C@@H]1O [Compound 23],9 nM and 12 nM,25 nM and < 5 nM and 14 nM,5800 nM,
"OC[C@H]1O[C@H](c2cccc(OCCCOc3cccc([C@H]4O[C@H](CO)[C@@H](O)[C@H](O)[C@@H]4O)c3)c2)[C@@H](O)[C@@H](O)[C@@H]1O [Compound 44, ((2R,3S,4R,5S,6R)-2-(Hydroxymethyl)-6-[3-[3-[3-[(2R,3S,4R,5S,6R)-3,4,5-trihydroxy-6-(hydroxymethyl)tetrahydropyran-2-yl]phenoxy]propoxy]phenyl]tetrahydropyran-3,4,5-triol)]",< 5 nM,6 nM,480 nM,< 5 nM
